Data taken from BindingDB's records for doi:10.1021/cb200305u (Harvard Medical School, 2012).

Key:
Assay in all cases: In Vitro Kinase Assay
Aurora kinase B = Aurora kinase B (Homo sapiens, UniProt Q96GD4)
From the text: (§1) In vitro kinase assay of Aurora A, B, and C using Z-LYTE technology (Invitrogen) and ATP at Km apparent for each kinase.

Aurora kinase A = biological target: T1, Aurora kinase A (Homo sapiens, UniProt O14965)
T1 sequence (O14965 whole entry): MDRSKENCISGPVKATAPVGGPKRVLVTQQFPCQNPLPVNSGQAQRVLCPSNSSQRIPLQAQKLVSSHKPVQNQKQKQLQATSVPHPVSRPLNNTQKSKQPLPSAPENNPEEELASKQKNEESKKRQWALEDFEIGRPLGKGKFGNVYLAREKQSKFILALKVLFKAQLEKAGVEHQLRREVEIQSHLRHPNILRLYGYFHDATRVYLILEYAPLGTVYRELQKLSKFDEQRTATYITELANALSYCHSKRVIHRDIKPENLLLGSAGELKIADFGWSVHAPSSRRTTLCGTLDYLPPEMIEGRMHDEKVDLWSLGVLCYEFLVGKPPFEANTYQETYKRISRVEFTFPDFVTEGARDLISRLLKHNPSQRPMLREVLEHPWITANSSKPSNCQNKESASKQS
From the text: as §1

Aurora kinase C = biological target: T2, Aurora kinase C (Homo sapiens, UniProt Q9UQB9)
T2 sequence (Q9UQB9 whole entry): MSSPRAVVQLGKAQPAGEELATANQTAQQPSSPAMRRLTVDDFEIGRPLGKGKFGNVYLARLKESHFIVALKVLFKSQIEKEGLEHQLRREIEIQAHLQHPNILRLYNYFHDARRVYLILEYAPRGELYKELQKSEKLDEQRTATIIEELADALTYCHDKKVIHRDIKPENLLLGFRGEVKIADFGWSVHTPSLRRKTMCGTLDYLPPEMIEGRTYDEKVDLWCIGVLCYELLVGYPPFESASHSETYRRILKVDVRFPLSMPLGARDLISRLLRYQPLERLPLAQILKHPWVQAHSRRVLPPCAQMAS
From the text: as §1

Sequence of Aurora kinase B (Q96GD4 whole entry): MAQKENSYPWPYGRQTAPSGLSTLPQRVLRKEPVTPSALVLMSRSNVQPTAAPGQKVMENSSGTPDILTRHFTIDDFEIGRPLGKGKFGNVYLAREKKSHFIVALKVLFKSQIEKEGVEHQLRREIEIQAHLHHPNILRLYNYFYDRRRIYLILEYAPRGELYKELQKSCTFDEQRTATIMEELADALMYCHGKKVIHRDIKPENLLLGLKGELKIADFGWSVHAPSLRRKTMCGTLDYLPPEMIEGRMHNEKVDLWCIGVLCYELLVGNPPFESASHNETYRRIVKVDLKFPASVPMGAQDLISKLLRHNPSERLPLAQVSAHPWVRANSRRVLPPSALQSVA

CC1CCN(S(=O)(=O)c2ccc(Nc3ncc4c(n3)N(C)c3ccccc3C(=O)N4C)cc2)CC1 [Benzo[e]pyrimido[5,4-b][1,4]diazepin-6(11H)-one, 5]
IC50 (Aurora kinase B): 45.1 nM
IC50 (Aurora kinase A): 16.8 nM

CN1C(=O)c2ccccc2N(C)c2nc(Nc3ccc(OCc4cccc(Cl)c4)cc3)ncc21 [Benzo[e]pyrimido[5,4-b][1,4]diazepin-6(11H)-one, 11]
IC50 (Aurora kinase B): 352 nM
IC50 (Aurora kinase A): 83.9 nM

CN1CCN(c2ccc(Nc3ncc4c(n3)N(C)c3ccccc3C(=O)N4C)cc2)CC1 [Benzo[e]pyrimido[5,4-b][1,4]diazepin-6(11H)-one, 3]
IC50 (Aurora kinase C): 40.5 nM
IC50 (Aurora kinase B): 25.9 nM
IC50 (Aurora kinase A): 7.2 nM

CCN1CCN(Cc2ccc(Nc3ncc4c(n3)N(C)c3c(C)cccc3C(=O)N4C)cc2C(F)(F)F)CC1 [Benzo[e]pyrimido[5,4-b][1,4]diazepin-6(11H)-one, 28]
IC50 (Aurora kinase B): 132 nM
IC50 (Aurora kinase A): 11.6 nM

CN1C(=O)c2ccccc2N(C)c2nc(Nc3ccc(C(=O)N4CCC(O)CC4)c(C(F)(F)F)c3)ncc21 [Benzo[e]pyrimido[5,4-b][1,4]diazepin-6(11H)-one, 19]
IC50 (Aurora kinase B): 43.7 nM
IC50 (Aurora kinase A): 5.1 nM

CN1CCN(Cc2cccc(Nc3ncc4c(n3)N(C)c3ccccc3C(=O)N4C)c2)CC1 [Benzo[e]pyrimido[5,4-b][1,4]diazepin-6(11H)-one, 16]
IC50 (Aurora kinase B): 19.8 nM
IC50 (Aurora kinase A): 10.7 nM

CN1CCN(C(=O)c2ccc(Nc3ncc4c(n3)N(C)c3ccccc3C(=O)N4C)cc2C(F)(F)F)CC1 [Benzo[e]pyrimido[5,4-b][1,4]diazepin-6(11H)-one, 12]
IC50 (Aurora kinase B): 84.8 nM
IC50 (Aurora kinase A): 9 nM

CN1c2ccccc2C(=O)Nc2cnc(Nc3ccc(N4CCC(O)CC4)cc3)nc21 [Benzo[e]pyrimido[5,4-b][1,4]diazepin-6(11H)-one, 18]
IC50 (Aurora kinase B): 216 nM
IC50 (Aurora kinase A): 98.5 nM

CCN(CCCOc1ccc2c(Nc3cc(CC(=O)Nc4cccc(F)c4)n[nH]3)ncnc2c1)CCOP(=O)(O)O
IC50 (Aurora kinase C): 25.3 nM

CCN1CCN(Cc2ccc(Nc3ncc4c(n3)N(C)c3cc(C)ccc3C(=O)N4C)cc2C(F)(F)F)CC1 [Benzo[e]pyrimido[5,4-b][1,4]diazepin-6(11H)-one, 30]
IC50 (Aurora kinase B): 230 nM
IC50 (Aurora kinase A): 146 nM

CCN1CCN(C(=O)Cc2ccc(Nc3ncc(F)c(Nc4ccc(C(=O)Nc5ccccc5Cl)cc4)n3)cc2)CC1 [Aurora Inhibitor, 35]
IC50 (Aurora kinase C): 432 nM
IC50 (Aurora kinase B): 1380 nM
IC50 (Aurora kinase A): 3.2 nM

CN1C(=O)c2ccccc2N(C)c2nc(Nc3ccc(N4CCC(O)CC4)cc3)ncc21 [Benzo[e]pyrimido[5,4-b][1,4]diazepin-6(11H)-one, 1]
IC50 (Aurora kinase C): 24.6 nM
IC50 (Aurora kinase A): 5.6 nM

CN1C(=O)c2ccccc2N(C)c2nc(Nc3ccc(C(=O)N4CCC(O)CC4)c(Cl)c3)ncc21 [Benzo[e]pyrimido[5,4-b][1,4]diazepin-6(11H)-one, 20]
IC50 (Aurora kinase B): 14.3 nM
IC50 (Aurora kinase A): 3.2 nM

CN1C(=O)c2ccccc2N(C)c2nc(Nc3ccc(S(N)(=O)=O)cc3)ncc21
IC50 (Aurora kinase B): 8.4 nM
IC50 (Aurora kinase A): 3.4 nM

COc1cc(Nc2ncc3c(n2)N(C)c2ccccc2C(=O)N3C)ccc1C(=O)N1CCN(O)CC1 [Benzo[e]pyrimido[5,4-b][1,4]diazepin-6(11H)-one, 22]
IC50 (Aurora kinase B): 24.2 nM
IC50 (Aurora kinase A): 2.6 nM

Cc1cc(Nc2ncc3c(n2)N(C)c2ccccc2C(=O)N3C)ccc1C(=O)N1CCN(C)CC1 [Benzo[e]pyrimido[5,4-b][1,4]diazepin-6(11H)-one, 21]
IC50 (Aurora kinase B): 14.5 nM
IC50 (Aurora kinase A): 3.7 nM

CCN1CCN(Cc2ccc(Nc3ncc4c(n3)N(C)c3c(F)cccc3C(=O)N4C)cc2C(F)(F)F)CC1 [Benzo[e]pyrimido[5,4-b][1,4]diazepin-6(11H)-one, 29]
IC50 (Aurora kinase C): 595 nM
IC50 (Aurora kinase B): 487 nM
IC50 (Aurora kinase A): 13.4 nM

CN1C(=O)c2ccccc2N(C)c2nc(Nc3ccc(OCc4cccc(F)c4)cc3)ncc21 [Benzo[e]pyrimido[5,4-b][1,4]diazepin-6(11H)-one, 10]
IC50 (Aurora kinase B): 512 nM
IC50 (Aurora kinase A): 323 nM

CN1CCN(c2ccc(Nc3ncc4c(n3)N(C)c3ccccc3C(=O)N4C)cc2C(F)(F)F)CC1 [Benzo[e]pyrimido[5,4-b][1,4]diazepin-6(11H)-one, 13]
IC50 (Aurora kinase B): 774 nM
IC50 (Aurora kinase A): 86.8 nM

CN1CCN(C(=O)c2cccc(Nc3ncc4c(n3)N(C)c3ccccc3C(=O)N4C)c2)CC1 [Benzo[e]pyrimido[5,4-b][1,4]diazepin-6(11H)-one, 15]
IC50 (Aurora kinase B): 36.7 nM
IC50 (Aurora kinase A): 14.9 nM

CN1C(=O)c2ccccc2N(C)c2nc(Nc3ccc(S(=O)(=O)N4CCC(O)CC4)cc3)ncc21 [Benzo[e]pyrimido[5,4-b][1,4]diazepin-6(11H)-one, 4]
IC50 (Aurora kinase B): 28.6 nM
IC50 (Aurora kinase A): 8.8 nM

CN1C(=O)c2ccccc2N(C)c2nc(Nc3ccc(OCc4ccccn4)cc3)ncc21 [Benzo[e]pyrimido[5,4-b][1,4]diazepin-6(11H)-one, 9]
IC50 (Aurora kinase B): 39.3 nM
IC50 (Aurora kinase A): 18.4 nM

CCN1CCN(Cc2ccc(Nc3ncc4c(n3)N(C)c3cc(F)ccc3C(=O)N4C)cc2C(F)(F)F)CC1 [Benzo[e]pyrimido[5,4-b][1,4]diazepin-6(11H)-one, 31]
IC50 (Aurora kinase B): 586 nM
IC50 (Aurora kinase A): 298 nM

CN1C(=O)c2ccccc2N(C)c2nc(Nc3ccc(OCc4ccccn4)c(Cl)c3)ncc21 [Benzo[e]pyrimido[5,4-b][1,4]diazepin-6(11H)-one, 14]
IC50 (Aurora kinase B): 417 nM
IC50 (Aurora kinase A): 53.2 nM

CN1CCN(c2cccc(Nc3ncc4c(n3)N(C)c3ccccc3C(=O)N4C)c2)CC1 [Benzo[e]pyrimido[5,4-b][1,4]diazepin-6(11H)-one, 17]
IC50 (Aurora kinase B): 55.8 nM
IC50 (Aurora kinase A): 11.9 nM

CCN1CCN(C(=O)c2ccc(Nc3ncc4c(n3)N(C)c3ccccc3C(=O)N4C)cc2)CC1 [Benzo[e]pyrimido[5,4-b][1,4]diazepin-6(11H)-one, 7]
IC50 (Aurora kinase B): 15.2 nM
IC50 (Aurora kinase A): 5.9 nM

CCN1CCN(C(=O)Cc2ccc(Nc3ncc4c(n3)N(C)c3ccccc3C(=O)N4C)cc2)CC1 [Benzo[e]pyrimido[5,4-b][1,4]diazepin-6(11H)-one, 8]
IC50 (Aurora kinase B): 18.7 nM
IC50 (Aurora kinase A): 6.1 nM
